# Results: patent US20250376481A1, “POLYCYCLIC CARBAMOYL PYRIDONE DERIVATIVE, PREPARATION METHOD THEREFOR AND PHARMACEUTICAL COMPOSITION THEREOF” (NANJING AIDEA PHARMACEUTICAL TECHNOLOGY CO., LTD., priority 2021, published 2025)
# Assays:
# [1] = Oil-water partition coefficient (n-octanol / pH 7.4 phosphate buffer); type: physicochemical; settings: n-octanol / pH 7.4 phosphate buffer, pH 7.4; read-out: Log D (pH 7.4)
# Protocol: • a) To a 5 mL glass bottle was added 1 mL n-octanol and 1 mL pH 7.4 phosphate buffer, respectively. • b) The compound was added to a DMSO solution to prepare a compound stock solution with a concentration of 10 mM, and then 20 μL compound stock solution was added to the mixture solution of n-octanol and phosphate buffer. • c) Shaken at room temperature for 1 hour at a rate of 300/minute. • d) Kept for 30 minutes, and after the solution was completely layered, the upper and lower layers of the solution were taken separately to a 96 well deep well plate, and LC-MS/MS was used for detection via injection. • e) The aliquots of 1-octanol and aqueous solution were diluted consecutively with DMSO to obtain the final sample for LC-MS/MS analysis. Three consecutive dilutions were carried on every 1-octanol phase with covering a concentration range of 2500 fold. Every final aqueous phase was diluted consecutively twice with covering a concentration range of 100 fold. The MS peak areas of these solutions were used to generate log (peak area) based on the log (relative concentration) calibration line.
# [formula] • Coct=sample concentration in n-octanol • Caq=sample concentration in pH 7.4 phosphate buffer
# [2] = PK test of compounds (mouse); type: in vivo, ICR mice
# Protocol: The mice were not fed until 5 pm on the day before administration, and fasted overnight with water. The mice in Group IV were administered with 2 mg/kg, while those in Group PO were administered with 10 mg/kg. Feeding was resumed 2 hours after administration. For mice administered by gavage, 20 μL blood was collected from the saphenous vein in calf before administration and 0.25, 0.5, 1, 2, 4, 8, and 24 hours after administration, respectively, and placed in EDTA-K2 anticoagulant blood collection tubes, and then the blood would be placed on ice until centrifuged to obtain plasma samples. The plasma samples were centrifuged at 4° C. (3500 rpm, 10 min), and after separation, the samples were transferred to EP tubes and stored at −80° C. for detection. For mice admistrated by intravenous injection, 20 μL blood was collected from the saphenous vein in calf before administration and 0.0833, 0.25, 0.5, 1, 2, 4, 8 and 24 hours after administration, respectively, and placed in EDTA-K2 anticoagulant blood collection tubes, and then the blood would be placed on ice until centrifuged to obtain a plasma sample. The plasma samples were centrifuged at 4° C. (3500 rpm, 10 min), and after separation, the samples were transferred to EP tubes and stored at −80° C. for detection. The level of tested compounds in blood plasma of mice, who had orally administrated with different concentrations of drugs were determinated: 10 μL mouse blood at each time point after administration was taken, 100 μL methanol containing an internal standard (100 ng/mL) was added, vortex mixed for 1 minute, centrifuged at 4° C. (12000 rmp, 5 minutes), and 1 μL supernatant was taken from the plasma samples for LC-MS/MS analysis.
# [3] = Cytotoxicity test (cell viability, CellTier Glo); type: cell-based; settings: human
# Protocol: • Virus: The HIV-1 pseudovirus used in this experiment was a replication deficient virus, which is constructed by WuXi AppTec. • HEK 293T cell line was purchased from ATCC, and Item No. is CRL-11268. Cells were cultured in DMEM medium with 10% fetal bovine serum and 1% double antibody. • Reagents
# On the first day, HEK 293T cells were inoculated into a 96 well test plate at the density of 55000 cells per well and […] per well, and incubated overnight in a 5% CO2 and 37° C. incubator.
# On the second day, the tested compounds (compounds provided in the example of the present invention) and the control compounds were diluted 4-fold with cell culture medium for a total of 8 concentration points, and 50 μL diluted compounds were added to each well, and each well was performed duplicate.
# Cell Control (cells, no compound treatment or virus infection) and virus control (cells infected with virus, no compound treatment) were set up. The final initial test concentration of the tested compounds and control compounds was 1000 nM (Table 1), and the amount of virus infection was 100 TCID50 per well. The total volume of cell culture medium was 200 μL per well, and the final concentration of DMSO in the culture medium was 0.5%.
# The cells were cultured in a 5% CO2 and 37° C. incubator for additional 3 days.
# On the fifth day, in the cytotoxicity test plates, 100 μL cell supernatant were sucked from each well, 100 μL cell viability assay reagent CellTier Gloin was added in dark. Cell viability in each well was detected by BioTek enzyme-linked immunosorbent assay reader, and the data was used for sample cytotoxicity analysis.
# Dose-response curve was drawn through GraphPad Prism software. The calculation equations for antiviral activity (% Inhibition) and cell viability (% cell viability) were as follow:
# The values of EC50 and CC50 were analyzed by GraphPad Prism (version 5) software, and nonlinear fitting analysis was used for inhibitory activity and cell viability of the compounds, and the fitting method was “log (inhibitor) vs. response—Variable slope”.
# 3. The HIV-1 pseudovirus experiment was applied to determinate the in vitro antiviral activity and cytotoxicity of the tested compound on HEK 293T cells, and the experimental results were shown in the table below.
structure (smiles),measurement,setting,value
C[C@H]1N2C(=O)c3c(O)c(=O)c(C(=O)NCc4ccc(F)cc4F)cn3C[C@@H]2OCC12CC2 [Compound 1],logD,[1],2.2
same,bioavailability (in words),[2]; PK test in mice,good bioavailability
same,half-life,"[2]; male, mouse, plasma, ICR mice, PO 10 mg/kg",4.37 ± 0.47 h
same,bioavailability,"[2]; male, mouse, plasma, ICR mice, PO 10 mg/kg (IV 2 mg/kg)",57%
same,CC50 at 3 days,[3],> 1000 nM
